Source: patent US20130108563A1, “COMPOSITIONS COMPRISING AT LEAST ONE AQUEOUS PHASE AND AT LEAST ONE FATTY PHASE WHICH COMPRISES AVERMECTIN COMPOUNDS” (Galderma S.A., priority 2006, published 2013)

What was measured:
[1] = Maximum solubility of ivermectin in oily-phase excipients; type: physicochemical; details: T1 hour, ambient temperature
Experimental: (§1) Maximum solubility of ivermectin at T1 hour at ambient temperature (AT) in various oily-phase excipients and 1 month stability at AT and T40° C.

[2] = 1-month stability of ivermectin in oily-phase excipients; type: physicochemical
Experimental: as §1

Substance: ivermectin
- Maximum solubility of ivermectin % (w/w) ([1]; in C12-C15 alkyl benzoate): 1.6 % (w/w)
- Maximum solubility of ivermectin % (w/w) ([1]; in Diisopropyl adipate): 10.4 % (w/w)
- Maximum solubility of ivermectin % (w/w) ([1]; in Guerbet alcohol): 2.5 % (w/w)
- Maximum solubility of ivermectin % (w/w) ([1]; in PPG 15 stearyl ether): 3.3 % (w/w)
- 1-month stability at 40° C. ([2]; in Diisopropyl adipate): Stable
- 1-month stability at AT ([2]; in Diisopropyl adipate): Stable
- 1-month stability at 40° C. ([2]; in PPG 15 stearyl ether): Stable
- 1-month stability at AT ([2]; in PPG 15 stearyl ether): Stable
